Source: patent US20240366634A1, “METHODS FOR THE TREATMENT OF CB1-, TRPA1- AND TRPV1-DEPENDENT CONDITIONS” (BUZZELET DEVELOPMENT AND TECHNOLOGIES LTD., priority 2021, published 2024)

Columns and labels:
Format in all cases: cell-based
GIRK channel = biological target: T1, GIRK channel (Homo sapiens, UniProt P48051+P48549); test: Receptor-independent effect on GIRK current in oocytes expressing the GIRK channel but not the CB1 receptor
T1 construct: expressed in transfected cells; host or cells: Xenopus laevis oocytes injected with cRNA
T1 sequence (P48549 1-501): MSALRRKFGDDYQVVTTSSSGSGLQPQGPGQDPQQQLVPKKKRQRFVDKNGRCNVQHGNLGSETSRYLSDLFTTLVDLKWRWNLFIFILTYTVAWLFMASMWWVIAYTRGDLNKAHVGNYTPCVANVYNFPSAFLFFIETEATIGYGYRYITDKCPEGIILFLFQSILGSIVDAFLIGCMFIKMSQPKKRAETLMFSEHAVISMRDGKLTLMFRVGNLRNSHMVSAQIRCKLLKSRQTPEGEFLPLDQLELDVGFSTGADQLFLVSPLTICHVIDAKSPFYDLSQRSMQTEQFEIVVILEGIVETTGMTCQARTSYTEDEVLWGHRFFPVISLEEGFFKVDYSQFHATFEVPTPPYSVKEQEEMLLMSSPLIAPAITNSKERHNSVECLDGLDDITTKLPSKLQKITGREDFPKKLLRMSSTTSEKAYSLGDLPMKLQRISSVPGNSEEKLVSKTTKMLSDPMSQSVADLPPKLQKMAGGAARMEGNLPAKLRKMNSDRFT
T1 sequence (P48051 1-423): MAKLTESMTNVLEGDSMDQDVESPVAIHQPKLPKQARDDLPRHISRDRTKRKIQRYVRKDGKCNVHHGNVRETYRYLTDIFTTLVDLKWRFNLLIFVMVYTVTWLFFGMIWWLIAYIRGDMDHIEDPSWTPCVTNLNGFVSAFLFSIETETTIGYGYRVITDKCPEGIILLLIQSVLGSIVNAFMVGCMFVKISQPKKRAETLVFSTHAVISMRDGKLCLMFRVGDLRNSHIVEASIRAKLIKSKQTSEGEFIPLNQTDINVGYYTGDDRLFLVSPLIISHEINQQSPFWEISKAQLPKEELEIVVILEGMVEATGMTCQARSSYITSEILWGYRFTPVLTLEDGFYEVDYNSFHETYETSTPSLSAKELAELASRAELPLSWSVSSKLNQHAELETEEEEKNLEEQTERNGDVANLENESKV
Protocol: To do so, the effect of THC and a panel of various terpenes was measured on oocytes expressing the GIRK channel but not the CB1 receptor.

hTRPA1 = biological target: T2, hTRPA1 (Homo sapiens, UniProt O75762); test: Live-cell calcium imaging (Fura-2) of TRPA1 activation in TREx 293 cells
T2 construct: expressed in transfected cells; host or cells: TREx 293 cells, pcDNA4/TO vector, doxycycline-induced
T2 sequence (O75762 whole entry): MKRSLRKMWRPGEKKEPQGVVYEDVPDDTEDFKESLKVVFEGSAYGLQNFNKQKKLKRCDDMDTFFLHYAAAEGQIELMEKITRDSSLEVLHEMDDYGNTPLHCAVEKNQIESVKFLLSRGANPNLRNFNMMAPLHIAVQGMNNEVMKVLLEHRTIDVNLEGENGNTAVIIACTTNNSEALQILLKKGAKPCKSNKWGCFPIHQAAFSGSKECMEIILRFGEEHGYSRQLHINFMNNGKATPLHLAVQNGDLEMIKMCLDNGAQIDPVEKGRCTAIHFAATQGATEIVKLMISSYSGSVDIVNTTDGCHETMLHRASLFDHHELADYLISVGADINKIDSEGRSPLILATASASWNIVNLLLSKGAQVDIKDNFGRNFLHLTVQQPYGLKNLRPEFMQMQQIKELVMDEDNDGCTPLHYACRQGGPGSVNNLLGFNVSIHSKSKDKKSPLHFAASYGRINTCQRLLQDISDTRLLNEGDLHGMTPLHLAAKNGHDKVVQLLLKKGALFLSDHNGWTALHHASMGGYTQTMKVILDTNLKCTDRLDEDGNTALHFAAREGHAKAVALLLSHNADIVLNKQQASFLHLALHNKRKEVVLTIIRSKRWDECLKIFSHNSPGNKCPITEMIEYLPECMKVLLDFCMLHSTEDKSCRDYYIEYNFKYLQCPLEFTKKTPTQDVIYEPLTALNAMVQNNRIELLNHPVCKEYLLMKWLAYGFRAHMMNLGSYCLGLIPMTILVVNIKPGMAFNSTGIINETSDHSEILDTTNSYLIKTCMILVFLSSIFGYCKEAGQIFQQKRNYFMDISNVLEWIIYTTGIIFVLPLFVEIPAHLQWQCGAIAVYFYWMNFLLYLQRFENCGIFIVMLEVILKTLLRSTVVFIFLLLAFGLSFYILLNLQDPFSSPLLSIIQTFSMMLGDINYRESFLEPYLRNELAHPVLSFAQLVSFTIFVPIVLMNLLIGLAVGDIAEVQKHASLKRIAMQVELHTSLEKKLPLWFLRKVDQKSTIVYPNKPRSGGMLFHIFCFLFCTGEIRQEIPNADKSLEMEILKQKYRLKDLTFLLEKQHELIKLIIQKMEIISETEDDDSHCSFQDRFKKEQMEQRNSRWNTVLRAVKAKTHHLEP
Protocol: rTRPV1 or hTRPA1 were stably expressed in TREx 293 cells following the manufacturer's protocol (Invitrogen, MA, USA). Briefly, TREx host cell line (Invitrogen, MA, USA) was transfected with pcDNA4/TO containing the gene of interest using Mirus LT1 transfection reagent (Mirus Bio, WI, USA) with Opti-MEM I Reduced Serum Medium (Invitrogen, MA, USA). Successful recombination and maintenance were confirmed through zeocin (500 μg/ml; Invivogen, Toulouse, France) selection to establish a stably-transfected cell line. Cells were grown in DMEM (Sigma-Aldrich, MO, USA) supplemented with 10% FBS, 1% penicillin-streptomycin, 2 mM L-alanine L-glutamine, and 25 mM HEPES (pH 7.3) supplemented with 5 μg/ml blasticidin at 37° C. and 5% CO2. Cells were passaged twice per week. Three hours before analysis, cells were treated with doxycycline (0.2-1 μg/ml) to induce transgene expression.
Flip-in TREX293T cells were spotted at PDL (0.2 mg/ml)-coated imaging chambers (μ-slide, 8-well; Ibidi, Martinsried, Germany) and incubated for 1.5-2 h in a humidified incubator at 37° C. and 5% CO2. Cells were loaded with 3 μg/ml Fura-2 AM (Thermo Fisher Scientific) dissolved in Ringer solution. The imaging chamber was placed onto the inverted microscope (IX70; Olympus, Tokyo, Japan). Cells were illuminated with a 175W xenon arc lamp, and excitation wavelengths (340/380 nm) were selected by a Lambda DG-4 monochromatic wavelength changer (Sutter Instrument, Novato, CA, USA). Intracellular Ca2+ concentration was measured by digital video microfluorometry illuminated interline CCD camera (Exi Blue; QImaging, Surrey, BC, Canada) using MetaFluor fluorescence ratio imaging software (Molecular Devices). Dual images (340 and 380 nm excitation, 510 nm emission) were collected, and pseudocolor ratio-metric images were monitored every 4 s during the experiment. Data analysis was performed with MetaFluor fluorescence ratio imaging software. Data are presented as a normalized intensity of baseline fluorescence. All experiments were carried out at room temperature.
Data for THC (leftmost column) and for THC with a 1/10 concentration of a terpene are presented. Response amplitudes are normalized to the maximal activation obtained by administration of Allyl Isothiocyanate (AITC). Numbers in parentheses represent p values for the comparison of the TRPA1 activation for THC and for THC plus a 1/10 concentration terpene.

CB1 receptor [1] = biological target: T3, CB1 receptor (Homo sapiens, UniProt P21554); test: CB1 receptor activation by terpenes, CB1-mediated GIRK currents in Xenopus oocytes (two-electrode voltage clamp); settings: 10 μM terpene alone; response amplitude normalized to response obtained with 10 μM THC; Xenopus oocytes expressing CB1, GIRK1/2, Gαi3
T3 construct: expressed in transfected cells; host or cells: Xenopus laevis oocytes injected with cRNA
T3 sequence (P21554 whole entry): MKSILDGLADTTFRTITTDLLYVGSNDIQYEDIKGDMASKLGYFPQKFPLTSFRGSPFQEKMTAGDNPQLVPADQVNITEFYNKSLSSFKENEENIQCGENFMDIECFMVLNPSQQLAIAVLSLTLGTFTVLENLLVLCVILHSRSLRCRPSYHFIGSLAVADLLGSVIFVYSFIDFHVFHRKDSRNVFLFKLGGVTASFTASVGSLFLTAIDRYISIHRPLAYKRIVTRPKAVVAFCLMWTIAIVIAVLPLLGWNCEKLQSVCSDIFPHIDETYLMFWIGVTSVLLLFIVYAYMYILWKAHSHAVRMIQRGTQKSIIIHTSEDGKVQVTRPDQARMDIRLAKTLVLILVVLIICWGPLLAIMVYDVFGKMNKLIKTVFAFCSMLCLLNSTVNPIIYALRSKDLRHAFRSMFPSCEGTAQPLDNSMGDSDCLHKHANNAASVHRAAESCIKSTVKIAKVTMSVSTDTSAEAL
Protocol: To test the possibility that the presence of various terpenes affects the activation of the CB1 receptor, the Inventors used Xenopus oocytes as a functional expression system. To this end, Xenopus oocytes were injected with cRNAs of proteins involved in the pathway leading to activation of K+ currents by CB1 receptor via βγ subunits of the G-proteins: The CB1 receptor, the two subunits of the GIRK channel (GIRK1 and GIRK2), and the Gαi3 subunit.
cDNA plasmids of the two subunits (GIRK1 and GIRK2) of the G protein-coupled inwardly-rectifying potassium (GIRK) receptor, the CB1 receptor, and the α subunit of the G-protein (Gαi3) were linearized with the appropriate restriction enzymes. The linearized plasmids were transcribed in vitro using a standard procedure.
X. laevis oocytes were isolated and incubated in NDE96 solution composed of ND96 (in mM: 96 NaCl, 2 KCl, 1 CaCl2, 1 MgCl2, 5 Hepes, with pH adjusted to 7.5 with NaOH) with the addition of 2.5 mM Na+ pyruvate, 100 units/ml penicillin, and 100 μg/ml streptomycin. A day after their isolation, the oocytes were injected with the relevant cRNAs. cRNAs of CB1 receptor (2 ng) and GIRK1 and GIRK2 (200 pg each) were injected. In addition, cRNA of Gαi3 (1000 pg) was injected to decrease the basal GIRK current (IK) and to improve the relative activation by the agonist (17).
Currents were measured 3-5 days after cRNA injection and were recorded using the standard two-electrode voltage clamp technique (Axoclamp 2B amplifier, Axon Instruments, Foster City, CA). Each oocyte was placed in the recording bath containing ND96 solution and was impaled with two electrodes pulled from 1.5-mm Clark capillaries (CEI, Pangboure, England). Both electrodes were filled with 3M KCl solution and the electrodes resistances were between 1-5 MΩ). The CB1-mediated GIRK currents were measured in a 24 mM K+ solution (in mM: 72 NaCl, 24 KCl, 1 CaCl2, 1 MgCl2, 5 Hepes, with pH adjusted to 7.5 with KOH). pCLAMP10 software (Axon Instruments) was used for data acquisition and analysis.
Next, the dependence of the THC-induced K+ current (ITHC) on THC concentration (dose-response) was measured. The oocyte was voltage-clamped to-80 mV in a low K+ (2 mM K+) solution, ND96. Basal GIRK current (IK) was developed upon replacement of the ND96 by the 24 mM K+ solution. This current represents the basal activation of GIRK channel by endogenous βγ subunits present in the oocytes. Then, five concentrations of THC were applied sequentially, giving rise to ITHC. This current was terminated upon washout of THC. Employing this basic experimental protocol, a full dose-response curve was constructed. To be able to compare between oocytes, ITHC at any particular THC concentration was normalized to ITHC obtained at a 10 μM, defined as the reference response.
Next, the effect of terpenes on CB1 activation was assessed.
Response amplitudes were normalized to the response obtained with 10 μM THC.

CB1 receptor [2] = biological target: T3, CB1 receptor; test: CB1 receptor activation by THC in combination with terpenes, Xenopus oocyte GIRK current; settings: terpene:THC weight/weight ratio 1:10; ratio of THC concentrations evoking 50% of maximal response with and without terpene
Protocol: Xenopus oocytes were used as a functional expression system, as described in Example 1.
Terpenes were administered together with tetrahydrocannabinol (THC) at a terpene to THC weight/weight ratio in the range between 0.05:1 and 1:1.
Augmented activation was given as fold change. Fold change in potency is given as the ratio between the THC concentration required to evoke 50% of the maximal response in the presence of terpene and the THC concentration that evoked the same response in the absence of terpene.

[3] = 8 μM THC with a 1/10 concentration of the terpene
[4] = 30 μM THC with a 1/10 concentration of the terpene

Row | Structure (SMILES) | Response to 10 μM terpene (CB1 receptor [1]) | Fold change of THC potency by terpene, at terpene:THC ratio of 1:10 (CB1 receptor [2]) | further results
1 | CCCCCc1cc(O)c2c(c1)OC(C)(C)[C@@H]1CCC(C)=C[C@@H]21 [THC, tetrahydrocannabinol, reference compound] | – | – | Effect on the GIRK current (GIRK channel): None of these compounds showed an effect on the GIRK current; TRPA1 response amplitude normalized to maximal activation by AITC (hTRPA1; 8 μM THC alone): 0.35; TRPA1 response amplitude normalized to maximal activation by AITC (hTRPA1; 30 μM THC alone): 0.8
2 | C=C1CCC2CC1C2(C)C (stereo not drawn) [β-pinene] | 0.29 ± 0.06 | – | –
3 | CC(C)=CCC/C(C)=C/CO [geraniol] | 0.31 ± 0.08 | 1.576 | –
4 | CC12CCC(CC1)C(C)(C)O2 [eucalyptol] | 0.41 ± 0.04 | – | TRPA1 response amplitude normalized to maximal activation by AITC (hTRPA1; [3]): 0.48; TRPA1 response amplitude normalized to maximal activation by AITC (hTRPA1; [4]): 0.93
5 | C=CC(C)(O)CCC=C(C)C (centres unmarked) [linalool] | – | 1.553 | TRPA1 response amplitude normalized to maximal activation by AITC (hTRPA1; [3]): 0.44; TRPA1 response amplitude normalized to maximal activation by AITC (hTRPA1; [4]): 0.93
6 | CC1=CCC2CC1C2(C)C (stereo not drawn) [α-pinene] | 0.29 ± 0.03 | – | –
7 | C=C(C)[C@H]1CC=C(C)CC1 [limonene] | 0.23 ± 0.02 | 3.369 | –
8 | C=C1CCC2(C(C)C)CC12 (centres unmarked) [sabinene] | – | 1.685 | –
9 | CC1(C)C2CCC1(C)C(O)C2 (centres unmarked) [borneol] | – | 4.469 | –
10 | C=CC(=C)CCC=C(C)C [myrcene] | 0.26 ± 0.07 | – | –
11 | C=CC(C)=CCC=C(C)C [ocimene] | 0.36 ± 0.05 | 2.639 | –
12 | CC1=CCC(=C(C)C)CC1 [terpinolene] | 0.45 ± 0.02 | – | –
13 | CC1CCC(C(C)C)C(O)C1 (centres unmarked) [Menthol] | – | – | TRPA1 response amplitude normalized to maximal activation by AITC (hTRPA1; [3]): 0.44
14 | CC(C)=CCCC(C)=CC=O [Citral] | – | – | TRPA1 response amplitude normalized to maximal activation by AITC (hTRPA1; [4]): 0.96
